# Test results published in publication PMC11224357, “Green, facile synthesis and evaluation of unsymmetrical carbamide derivatives as antimicrobial and anticancer agents with mechanistic insights” (Scientific Reports, 2024).
# Like-named read-outs stand apart in the source and are kept apart here.
# Tests used:
# Aspergillus fumagitus [1] = experiment: Agar well diffusion; type: cell-based; conditions: read-out: Inhibition Zone
# Description: (§1) The antimicrobial efficiency of the synthesized unsymmetrical carbamide derivatives was screened using standard clinical pathogens derived from Department of Microbiology and Immunology, Faculty of Medicine (Boys), Al-Azhar University. The tested microbial pathogens used in this study were as follows, two Gram-positive bacteria (Bacillus subtilis, Staphylococcus aureus), two Gram-negative bacteria (Pseudomonas aerginousea, klebsiella pneumoniae) and two fungi (Candida albicans, Aspergillus fumgitus). Before each antimicrobial examination, pre-activation of each microbial pathogen was implemented using specific growth conditions. For bacterial ones, preinoculum was prepared using Nuitrent broth medium (Codalab, Spain) at 37 °C for 24 h. while the fungal pathogens were activated using Potato Dextrose broth (Codalab, Spain) at 28 °C for 48 h. Consequently, each tested pathogen justified its inoculum size based on Colony Forming Units (CFU) to be closed to […] during all antimicrobial tests.
# Candida albicans [2] = experiment: Agar well diffusion; type: cell-based; conditions: read-out: Inhibition Zone
# Description: as §1
# Staphylococcus aureus [3] = experiment: MIC by microdilution (CLSI); type: cell-based; conditions: read-out: Minimum inhibitory concentration (MIC)
# Protocol: (§2) In brief, a defined weight for each selected compound was dissolved in dimethylsulphoxide (DMSO) and used as a stock solution[29].
# Klebsiella pneumonia [4] = experiment: MIC by microdilution (CLSI); type: cell-based; conditions: Klebsiella pneumoniae, read-out: Minimum inhibitory concentration (MIC)
# Protocol: as §2
# Bacillus subtilis [5] = experiment: MIC by microdilution (CLSI); type: cell-based; conditions: read-out: Minimum inhibitory concentration (MIC)
# Protocol: as §2
# Pseudomonas aeruginosa [6] = experiment: MIC by microdilution (CLSI); type: cell-based; conditions: read-out: Minimum inhibitory concentration (MIC)
# Protocol: as §2
# Staphylococcus aureus [7] = experiment: Agar well diffusion; type: cell-based
# Description: as §1, with “For bacterial ones, preinoculum was prepared using Nuitrent broth medium (Codalab, Spain) at 37 °C for 24 h. while the fungal pathogens were activated using Potato Dextrose broth (Codalab, Spain) at 28 °C for 48 h.” left out
# Klebsiella pneumonia [8] = experiment: Agar well diffusion; type: cell-based; conditions: Klebsiella pneumoniae, read-out: Inhibition Zone
# Description: as §1, with “For bacterial ones, preinoculum was prepared using Nuitrent broth medium (Codalab, Spain) at 37 °C for 24 h. while the fungal pathogens were activated using Potato Dextrose broth (Codalab, Spain) at 28 °C for 48 h.” left out
# Bacillus subtilis [9] = experiment: Agar well diffusion; type: cell-based; conditions: read-out: Inhibition Zone
# Description: as §1, with “For bacterial ones, preinoculum was prepared using Nuitrent broth medium (Codalab, Spain) at 37 °C for 24 h. while the fungal pathogens were activated using Potato Dextrose broth (Codalab, Spain) at 28 °C for 48 h.” left out
# Pseudomonas aeruginosa [10] = experiment: Agar well diffusion; type: cell-based; conditions: read-out: Inhibition Zone
# Description: as §1, with “For bacterial ones, preinoculum was prepared using Nuitrent broth medium (Codalab, Spain) at 37 °C for 24 h. while the fungal pathogens were activated using Potato Dextrose broth (Codalab, Spain) at 28 °C for 48 h.” left out
# Staphylococcus aureus [11] = experiment: Lipid peroxidation (LPO) MDA-TBA assay of bacterial cell membrane; type: cell-based; conditions: overnight incubation, MDA-TBA at 532 nm
# Protocol: (§3) Lipid peroxidation of bacterial cell membranes was a remarkable tool indicating the oxidative stress that was caused by the tested compounds. The lipid peroxidation colorimetric assay kit was used for this purpose. […]. […] Briefly, each tested compound was incubated with each bacterial pathogen overnight under shaking and then 1 mL of the treated bacterial cell was vigorously mixed with 300 μL MDA lysis buffer at 4 °C. The addition of 3 μL of Butylated hydroxytoluene (BHT) was then performed to avoid the pigment interference that resulted from the decomposition of lipophilic peroxides. Thereafter, samples were separated by centrifugation at 8000 rpm for 10 min, and the insoluble substances were discarded. Finally, 200 μL of the clear supernatant was mixed with 600 μL of the TBA solution at 95 °C for 60 min. Samples were then cooled at room temperature, and the developed pink color was determined at 532 nm using a Spectrophotometer (Agilent Cary 100, Germany). The positive control was also prepared using 5% of Hydrogen peroxide and treated each bacterial pathogen for 20 min. The noticed increase in the lipid peroxidation efficiency was expressed from the following equation: Lipidperoxidationefficiency%=NC-NS/NC×100. where NC is the absorbance of lipid peroxidation in the untreated bacterial cells and NS is the absorbance of lipid peroxidation in the treated bacterial cells.
# Klebsiella pneumonia [12] = experiment: as above; type: cell-based; conditions: overnight incubation, MDA-TBA at 532 nm
# Protocol: as §3
# Bacillus subtilis [13] = experiment: as above; type: cell-based; conditions: overnight incubation, MDA-TBA at 532 nm
# Protocol: as §3
# Pseudomonas aeruginosa [14] = experiment: as above; type: cell-based; conditions: overnight incubation, MDA-TBA at 532 nm
# Protocol: as §3
# Aspergillus fumagitus [15] = experiment: MIC by microdilution (CLSI); type: cell-based; conditions: read-out: Minimum inhibitory concentration (MIC)
# Protocol: (§4) For this purpose, serial dilution of the potent compounds was carried out to obtain the desired concentrations (i.e. 10–400 µg/mL). In brief, a defined weight for each selected compound was dissolved in dimethylsulphoxide (DMSO) and used as a stock solution[29]. The determination of the MIC value for each targeted compound was known as the lowest concentration of each sample that yielded a minimum number of colony-forming units (CFU) compared to the untreated samples[28].
# Candida albicans [16] = experiment: MIC by microdilution (CLSI); type: cell-based; conditions: read-out: Minimum inhibitory concentration (MIC)
# Protocol: as §4
# MCF-7 cells = experiment: Annexin V-FITC/PI necrosis cell apoptosis assay; type: cell-based, human; conditions: % of population
# Protocol: (§5) The levels of necrosis and apoptosis in cells were determined by CytoFLEX Flow Cytometer. A total of 1 × 10^6 cells were washed in 1 × DPBS, and then were centrifuged at 500 × ϲ for 5 min. 1 μL of annexin V-FITC solution and 5 μL of dissolved PI were added to 100 μL of the cell suspensions that kept on ice and were incubated for 15 min in the dark. Cells were then analyzed by the CytoFLEX Flow Cytometer (Beckman Coulter Life Sciences, USA) and the percentage of apoptotic cells was determined using CytExpert Software.
# [17] = test system: MCF-7 (human breast cancer); experiment: MTT cytotoxicity assay; type: cell-based; conditions: for IC50: MTT
# Protocol: The MTT 3-(4,5-dimethylthiazol-2-yl)-2,5-diphenyl-tetrazolium bromide (Bio Basic Canada Inc. Toronto, Canada) assay was used to assess cell viability. The procedures were carried out in a biosafety class II sterile laminar air flow cabinet (Baker, SG403INT; Sanford, ME, USA). […] Cells were seeded at a density of (10^4 cells/well) into 96-well micro titer polypropylene plates and left to adhere for 24 h. […] After 48 h of incubation, 40 µL of MTT salt ([…]) was applied to each well. […] Instead of the tested substances, the medium was applied to the untreated cells (negative control). […] The testing substance was dissolved in dimethylsulfoxide (DMSO), and its final concentration in the cells was less than 0.2%. The solvent concentration was the same for all medications and between the control and drug treatments at the same dilution.
# HCT-116 cells [18] = experiment: Cell cycle analysis by flow cytometry (PI staining); type: cell-based, human
# Protocol: The ethanol-suspended cells were centrifuged and re-suspended in 5 mL 1 × DPBS, then centrifuged again before being re-suspended in 1 mL of PI staining solution. The stained cells were kept in the dark at room temperature for 30 min before being transferred to the CytoFLEX Flow Cytometer to measure their fluorescence. […] BECKMAN COULTER Inc., Cairo, Egypt, Cat. No. 4238055-CB was used in this assay.
# [19] = test system: HCT-116 (human colon cancer); experiment: MTT cytotoxicity assay; type: cell-based; conditions: for IC50: HCT-116, MTT
# Protocol: (§6) The MTT 3-(4,5-dimethylthiazol-2-yl)-2,5-diphenyl-tetrazolium bromide (Bio Basic Canada Inc. Toronto, Canada) assay was used to assess cell viability. The procedures were carried out in a biosafety class II sterile laminar air flow cabinet (Baker, SG403INT; Sanford, ME, USA). […] Cells were seeded at a density of (10^4 cells/well) into 96-well micro titer polypropylene plates and left to adhere for 24 h. The media was aspirated and the test chemicals were given to the cells in a single dose of 100 µM in DMSO. After 48 h of incubation, 40 µL of MTT salt ([…]) was applied to each well. […] Instead of the tested substances, the medium was applied to the untreated cells (negative control). […] The testing substance was dissolved in dimethylsulfoxide (DMSO), and its final concentration in the cells was less than 0.2%. The solvent concentration was the same for all medications and between the control and drug treatments at the same dilution.
# HCT-116 cells [20] = experiment: Annexin V-FITC/PI necrosis cell apoptosis assay; type: cell-based, human; conditions: % of population
# Protocol: as §5
# MTT cytotoxicity assay = type: cell-based, human; conditions: human, BJ-1 normal cells
# Protocol: as §6
# [21] = test system: BJ-1 (human normal skin fibroblast cells); experiment: MTT cytotoxicity assay; type: cell-based; conditions: BJ-1 normal cells, 100 µM
# Protocol: as §6
# [22] = Aspergillus fumagitus, 20 µg/mL
# [23] = Homo sapiens, MCF7, 48 h, MCF-7, 48 h
# [24] = Homo sapiens, MCF7, MCF-7, single dose 100 µM, 48 h, read-out: Cytotoxicity (%)
Compound,zone of inhibition at 20 µg/mL (Aspergillus fumagitus [1]; [22]),zone of inhibition at 20 µg/mL (Candida albicans [2]; 20 µg/mL),MIC (Staphylococcus aureus [3]),MIC (Klebsiella pneumonia [4]),MIC (Bacillus subtilis [5]),MIC (Pseudomonas aeruginosa [6]),melting point,zone of inhibition at 20 µg/mL (Staphylococcus aureus [7]),"zone of inhibition at 20 µg/mL (Klebsiella pneumonia [8]; Klebsiella pneumonia, 20 µg/mL)",zone of inhibition at 20 µg/mL (Bacillus subtilis [9]; 20 µg/mL),zone of inhibition at 20 µg/mL (Pseudomonas aeruginosa [10]; 20 µg/mL),Lipid peroxidation (Staphylococcus aureus [11]),Lipid peroxidation (Klebsiella pneumonia [12]),Lipid peroxidation (Bacillus subtilis [13]),Lipid peroxidation (Pseudomonas aeruginosa [14]),MIC (Aspergillus fumagitus [15]),MIC (Candida albicans [16]),early apoptosis (MCF-7 cells),late apoptosis (MCF-7 cells),"IC50 [17, 23]",further results
"Cc1ccc(NC(=O)N2CCOCC2)cc1 [Compound 15, N-(p-tolyl)morpholine-4-carboxamide]",2 mm,4 mm,40 µg/mL,20 µg/mL,40 µg/mL,20 µg/mL,165 to 167 °C,2 mm,4 mm,2 mm,4 mm,128.9%,108.6%,157.1%,107%,20 µg/mL,10 µg/mL,–,–,–,–
"O=C(Nc1ccccc1)N1CCCCC1 [Compound 22, N-phenylpiperidine-1-carboxamide]",4 mm,5 mm,40 µg/mL,40 µg/mL,10 µg/mL,80 µg/mL,190 to 192 °C,2 mm,3 mm,5 mm,3 mm,273.4%,191.3%,264.8%,170%,10 µg/mL,5 µg/mL,7.93%,1.1%,91.6 ± 0.112 µM,"cytotoxicity at 100 µM [17, 24]: ≥ 51%; IC50 ([17]; MCF-7, 48 h): 57.9 ± 0.122 µM"
"CN1CCN(C(=O)Nc2ccccc2)CC1 [Compound 21, 4-Methyl-N-phenylpiperazine-1-carboxamide]",–,–,–,–,–,–,128 to 130 °C,–,–,–,–,–,–,–,–,–,–,–,–,91.6 ± 0.112 µM,"cell cycle arrest (phase) (HCT-116 cells [18]): weaker than those of compound 13; zone of inhibition at 20 µg/mL (Aspergillus fumagitus [1]; Aspergillus): 2 mm; zone of inhibition at 20 µg/mL (Candida albicans [2]): 3 mm; cytotoxicity at 100 µM ([19]; HCT-116, 48 h): ≥ 65%; IC50 ([19]; 48 h): 38.5 ± 0.17 µM; zone of inhibition at 20 µg/mL (Klebsiella pneumonia [8]): 3 mm; zone of inhibition at 20 µg/mL (Bacillus subtilis [9]): 4 mm; zone of inhibition at 20 µg/mL (Pseudomonas aeruginosa [10]): 2 mm; early apoptosis (HCT-116 cells [20]): 0.99%; late apoptosis (HCT-116 cells [20]): 0.44%; cytotoxicity at 48 h, 100 µM (MTT cytotoxicity assay): 38.9%; Cytotoxicity (%) [21]: 47.2%; cytotoxicity at 100 µM ([17]; Homo sapiens, MCF7, 48 h): ≥ 51%"
"Cc1ccc(S(=O)(=O)NC(=O)NC23CC4CC(CC(C4)C2)C3)cc1 [Compound 13, N-(adamantan-1-ylcarbamoyl)-4-methylbenzenesulfonamide]",–,3 mm,–,–,–,–,–,2 mm,2 mm,6 mm,3 mm,–,–,–,–,–,–,2.24%,0.58%,62.4 ± 0.128 µM,"IC50 ([19]; 48 h): 43.5 ± 0.15 µM; cytotoxicity at 100 µM ([19]; HCT-116, single dose 100 µM, 48 h, read-out: Cytotoxicity (%)): ≥ 65%; early apoptosis (HCT-116 cells [20]): 45.07%; late apoptosis (HCT-116 cells [20]): 0.42%; cytotoxicity at 48 h, 100 µM (MTT cytotoxicity assay; BJ-1 normal skin fibroblast cells): 2.7%; cytotoxicity at 100 µM [17, 24]: ≥ 51%"
